Test results as given in patent publication US20180250280A1 (BAYER PHARMA AKTIENGESELLSCHAFT, priority 2015, published 2018).

Key:
[1] = target: T1, human factor XIa (Homo sapiens, UniProt P03951); experiment: Measurement of FXIa inhibition (fluorogenic peptide substrate, AMC cleavage); assay type: biochemical; conditions: factor XIa from Kordia 0.45 nM; substrate Boc-Glu(OBzl)-Ala-Arg-AMC 10 μM; 30 min at 22° C.; in some cases averages from multiple determinations
T1 construct: purchased Kordia

[2] = target: T2, human plasma kallikrein (Homo sapiens, UniProt P03952); experiment: Determination of the plasma kallikrein activity (fluorogenic peptide substrate, AMC cleavage); assay type: biochemical; conditions: plasma kallikrein from Kordia 0.6 nM; substrate H-Pro-Phe-Arg-AMC 10 μM; 30 min at 22° C.; in some cases averages from multiple determinations
T2 construct: purchased Kordia
In short: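 Kallikrein cleavage of H-Pro-Phe-Arg-AMC was followed by AMC fluorescence (ex 360, em 460) after 15 min enzyme–compound preincubation. IC50 was derived versus DMSO controls over final concentrations of 50 μM to 0.00013 μM.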

T2 sequence (P03952 391-638 limits assumed): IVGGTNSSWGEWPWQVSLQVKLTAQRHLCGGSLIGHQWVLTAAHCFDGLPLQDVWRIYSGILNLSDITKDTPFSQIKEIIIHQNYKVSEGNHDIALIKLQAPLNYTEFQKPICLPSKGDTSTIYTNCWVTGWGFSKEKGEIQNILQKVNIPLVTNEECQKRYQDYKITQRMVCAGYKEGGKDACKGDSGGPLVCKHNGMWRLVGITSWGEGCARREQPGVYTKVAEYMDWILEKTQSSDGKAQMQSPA
T2 sequence (P03952 20-390 partner limits assumed): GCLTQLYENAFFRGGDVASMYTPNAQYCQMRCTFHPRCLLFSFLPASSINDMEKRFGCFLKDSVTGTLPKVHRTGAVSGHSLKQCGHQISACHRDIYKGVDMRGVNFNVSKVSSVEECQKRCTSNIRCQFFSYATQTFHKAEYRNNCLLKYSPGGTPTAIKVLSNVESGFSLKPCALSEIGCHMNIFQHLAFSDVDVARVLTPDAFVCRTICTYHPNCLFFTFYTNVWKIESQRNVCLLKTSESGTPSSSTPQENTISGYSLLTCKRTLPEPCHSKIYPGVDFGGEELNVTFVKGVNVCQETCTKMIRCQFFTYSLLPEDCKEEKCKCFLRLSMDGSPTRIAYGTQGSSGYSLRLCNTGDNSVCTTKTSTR
T1 sequence (P03951 388-625 limits assumed): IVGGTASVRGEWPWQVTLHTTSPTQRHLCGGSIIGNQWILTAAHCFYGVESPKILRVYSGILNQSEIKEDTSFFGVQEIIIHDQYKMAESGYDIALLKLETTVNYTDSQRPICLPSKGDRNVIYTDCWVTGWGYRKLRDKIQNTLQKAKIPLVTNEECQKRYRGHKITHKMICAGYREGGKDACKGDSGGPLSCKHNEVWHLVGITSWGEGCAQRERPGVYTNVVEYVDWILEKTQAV
T1 sequence (P03951 19-387 partner limits assumed): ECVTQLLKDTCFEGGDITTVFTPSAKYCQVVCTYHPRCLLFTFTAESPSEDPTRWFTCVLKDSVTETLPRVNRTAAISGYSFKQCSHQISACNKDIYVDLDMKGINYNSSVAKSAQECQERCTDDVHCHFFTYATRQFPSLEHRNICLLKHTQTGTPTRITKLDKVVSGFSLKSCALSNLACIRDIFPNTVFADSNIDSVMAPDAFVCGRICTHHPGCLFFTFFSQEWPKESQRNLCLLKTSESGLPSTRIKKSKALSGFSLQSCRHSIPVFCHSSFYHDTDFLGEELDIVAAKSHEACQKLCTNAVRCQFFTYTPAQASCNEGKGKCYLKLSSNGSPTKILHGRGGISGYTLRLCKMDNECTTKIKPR

SMILES	IC50 [1]	IC50 [2]
COCCC(C(=O)Nc1ccc(C(=O)O)cc1)n1cc(OC)c(-c2cc(Cl)ccc2OCC(F)(F)F)cc1=O (single isomer, unassigned) [Example 2, 4-[(2-{4-[5-Chloro-2-(2,2,2-trifluoroethoxy)phenyl]-5-methoxy-2-oxopyridin-1(2H)-yl}-4-methoxybutanoyl)amino]benzoic acid]	0.28 nM	15 nM
COCCC(C(=O)Nc1ccc(C(=O)O)cc1)n1cc(OC)c(-c2cc(Cl)ccc2OCC(F)(F)F)cc1=O (racemic) [Example 1, 4-[(2-{4-[5-Chloro-2-(2,2,2-trifluoroethoxy)phenyl]-5-methoxy-2-oxopyridin-1(2H)-yl}-4-methoxybutanoyl)amino]benzoic acid]	1.2 nM	55 nM
COc1cc(NC(=O)C(C[C@@H]2CCCCO2)n2cc(OC)c(-c3cc(Cl)ccc3OCC(F)(F)F)cc2=O)ccc1C(=O)O (stereo partly drawn) [Example 76, 4-({2-{4-[5-Chloro-2-(2,2,2-trifluoroethoxy)phenyl]-5-methoxy-2-oxopyridin-1(2H)-yl}-3-[(2S)-tetrahydro-2H-pyran-2-yl]propanoyl}amino)-2-methoxybenzoic acid]	2.2 nM	150 nM
CCCC(C(=O)Nc1ccc(C(=O)O)cc1)n1cc(OC)c(-c2cc(Cl)ccc2OCC(F)(F)F)cc1=O (racemic) [Example 67, 4-{[2-{4-[5-Chloro-2-(2,2,2-trifluoroethoxy)phenyl]-5-methoxy-2-oxopyridin-1(2H)-yl}pentanoyl]amino}benzoic acid]	2.8 nM	140 nM
COCCC(C(=O)Nc1ccc(C(N)=O)c(F)c1)n1cc(OC)c(-c2cc(Cl)ccc2OCC(F)(F)F)cc1=O (racemic) [Example 3, 4-[(2-{4-[5-Chloro-2-(2,2,2-trifluoroethoxy)phenyl]-5-methoxy-2-oxopyridin-1(2H)-yl}-4-methoxybutanoyl)amino]-2-fluorobenzamide]	14 nM	100 nM
COc1cn([C@@H](CCOC(C)(C)C)C(=O)Nc2ccc(C(=O)O)s2)c(=O)cc1-c1cc(Cl)ccc1OCC(F)(F)F (single isomer, unassigned) [Example 69, 5-{[4-tert-Butoxy-2-{4-[5-chloro-2-(2,2,2-trifluoroethoxy)phenyl]-5-methoxy-2-oxopyridin-1(2H)-yl}butanoyl]amino}thiophene-2-carboxylic acid]	0.88 nM	8.9 nM
CCNC(=O)c1ccc(NC(=O)C(CCOC2(C)CCC2)n2cc(OC)c(-c3cc(Cl)ccc3OCC(F)(F)F)cc2=O)cn1 (racemic) [Example 61, 5-[[2-[4-[5-Chloro-2-(2,2,2-trifluoroethoxy)phenyl]-5-methoxy-2-oxo-1-pyridyl]-4-(1-methylcyclobutoxy)butanoyl]amino]-N-ethylpyridine-2-carboxamide]	43 nM	150 nM
COc1cn(C(CC2COCCO2)C(=O)Nc2ccc3nn(C)cc3c2)c(=O)cc1-c1cc(Cl)ccc1OCC(F)F (stereo not shown) [Example 33, 2-{4-[5-Chloro-2-(2,2-difluoroethoxy)phenyl]-5-methoxy-2-oxopyridin-1(2H)-yl}-3-(1,4-dioxan-2-yl)-N-(2-methyl-2H-indazol-5-yl)propanamide]	5.8 nM	66 nM
COc1cn(C(CC2COCCO2)C(=O)Nc2ccc3nn(C)cc3c2)c(=O)cc1-c1cc(Cl)ccc1OCCF (stereo not shown) [Example 48, 2-{4-[5-Chloro-2-(2-fluoroethoxy)phenyl]-5-methoxy-2-oxopyridin-1(2H)-yl}-3-(1,4-dioxan-2-yl)-N-(2-methyl-2H-indazol-5-yl)propanamide]	15 nM	150 nM
CNC(=O)c1ccc(NC(=O)C(C[C@@H]2CCCCO2)n2cc(OC)c(-c3cc(Cl)ccc3OCC(F)(F)F)cc2=O)cn1 (stereo partly drawn) [Example 52, 5-[(2-{4-[5-Chloro-2-(2,2,2-trifluoroethoxy)phenyl]-5-methoxy-2-oxopyridin-1(2H)-yl}-3-[(2S)-tetrahydro-2H-pyran-2-yl]propanoyl)amino]-N-methylpyridine-2-carboxamide]	5.1 nM	82 nM
COc1cn(C(C[C@@H]2CCCCO2)C(=O)Nc2ccc3nn(C)cc3c2)c(=O)cc1-c1cc(Cl)ccc1OCC(F)(F)F (stereo partly drawn) [Example 51, 2-{4-[5-Chloro-2-(2,2,2-trifluoroethoxy)phenyl]-5-methoxy-2-oxopyridin-1(2H)-yl}-N-(2-methyl-2H-indazol-5-yl)-3-[(2S)-tetrahydro-2H-pyran-2-yl]propanamide]	6 nM	65 nM
COc1cn(C(CCOC(C)C)C(=O)Nc2ccc(C(N)=O)c(F)c2)c(=O)cc1-c1cc(Cl)ccc1OCC(F)(F)F (racemic) [Example 41, 4-[(2-{4-[5-Chloro-2-(2,2,2-trifluoroethoxy)phenyl]-5-methoxy-2-oxopyridin-1(2H)-yl}-4-isopropoxybutanoyl)amino]-2-fluorobenzamide]	25 nM	130 nM
COc1cn(C(C[C@H](C)OC)C(=O)Nc2ccc(C(=O)O)cc2)c(=O)cc1-c1cc(Cl)ccc1OCC(F)(F)F (mixture of isomers) [Example 35, 4-{[(4S)-2-{4-[5-Chloro-2-(2,2,2-trifluoroethoxy)phenyl]-5-methoxy-2-oxopyridin-1(2H)-yl}-4-methoxypentanoyl]amino}benzoic acid]	2.4 nM	130 nM
COc1cn(C(CC2=NOCCC2)C(=O)Nc2ccc3nn(C)cc3c2)c(=O)cc1-c1cc(Cl)ccc1OCC(F)(F)F (racemic) [Example 24, 2-{4-[5-Chloro-2-(2,2,2-trifluoroethoxy)phenyl]-5-methoxy-2-oxopyridin-1(2H)-yl}-3-(5,6-dihydro-4H-1,2-oxazin-3-yl)-N-(2-methyl-2H-indazol-5-yl)propanamide]	36 nM	130 nM
COc1cn(C(CCOC(C)(C)C)C(=O)Nc2ccc3nn(C)cc3c2)c(=O)cc1-c1cc(Cl)ccc1OCC(F)(F)F (racemic) [Example 9, 4-tert-Butoxy-2-{4-[5-chloro-2-(2,2,2-trifluoroethoxy)phenyl]-5-methoxy-2-oxopyridin-1(2H)-yl}-N-(2-methyl-2H-indazol-5-yl)butanamide]	14 nM	57 nM
COc1cn(C(CCOC(C)C)C(=O)Nc2ccc(C(=O)O)cc2)c(=O)cc1-c1cc(Cl)ccc1OCC(F)(F)F (racemic) [Example 34, 4-[(2-{4-[5-Chloro-2-(2,2,2-trifluoroethoxy)phenyl]-5-methoxy-2-oxopyridin-1(2H)-yl}-4-isopropoxybutanoyl)amino]benzoic acid]	1.9 nM	45 nM
COc1cn(C(CCOC2(C)CCC2)C(=O)Nc2ccc(C(N)=O)c(F)c2)c(=O)cc1-c1cc(Cl)ccc1OCC(F)(F)F (racemic) [Example 59, 4-[[2-[4-[5-Chloro-2-(2,2,2-trifluoroethoxy)phenyl]-5-methoxy-2-oxo-1-pyridyl]-4-(1-methylcyclobutoxy)butanoyl]amino]-2-fluorobenzamide]	14 nM	110 nM
COc1cn(C(CCOC(C)(C)C)C(=O)Nc2ccc(C(=O)O)cc2)c(=O)cc1-c1cc(Cl)ccc1OCC(F)F (racemic) [Example 25, 4-[(4-tert-Butoxy-2-{4-[5-chloro-2-(2,2-difluoroethoxy)phenyl]-5-methoxy-2-oxopyridin-1(2H)-yl}butanoyl)amino]benzoic acid]	2.4 nM	120 nM
COc1cn(C(CC2COCCO2)C(=O)Nc2ccc(C(=O)O)cc2)c(=O)cc1-c1cc(Cl)ccc1OCC(F)(F)F (single isomer, unassigned) [Example 62, 4-{[2-{4-[5-Chloro-2-(2,2,2-trifluoroethoxy)phenyl]-5-methoxy-2-oxopyridin-1(2H)-yl}-3-(1,4-dioxan-2-yl)propanoyl]amino}benzoic acid]	0.52 nM	15 nM
COc1cn(C(CC2COCCO2)C(=O)Nc2ccc(C(=O)O)cc2)c(=O)cc1-c1cc(Cl)ccc1OCC(F)(F)F (stereo not shown) [Example 17, 4-{[2-{4-[5-Chloro-2-(2,2,2-trifluoroethoxy)phenyl]-5-methoxy-2-oxopyridin-1(2H)-yl}-3-(1,4-dioxan-2-yl)propanoyl]amino}benzoic acid]	0.82 nM	47 nM
